Assay: xn = mol fraction of the nth substance listed
Conditions: Liquid, pressure decay method

## CCCCCC[n+]1ccn(C)c1.O=S(=O)([N-]S(=O)(=O)C(F)(F)F)C(F)(F)F + O=C=O
283.2 K, 91.5 kPa, x2 = 0
  binary diffusion coefficient: 2.64e-10 m2/s
298.2 K, 99.7 kPa, x2 = 0
  binary diffusion coefficient: 3.89e-10 m2/s
313.2 K, 103.4 kPa, x2 = 0
  binary diffusion coefficient: 5.97e-10 m2/s

## CC(F)(F)F [1,1,1-trifluoroethane] + CCCCCC[n+]1ccn(C)c1.O=S(=O)([N-]S(=O)(=O)C(F)(F)F)C(F)(F)F
303.2 K, 104 kPa, x1 = 0
  binary diffusion coefficient: 1.84e-10 m2/s
313.2 K, 98.7 kPa, x1 = 0
  binary diffusion coefficient: 2.4e-10 m2/s
323.2 K, 99.5 kPa, x1 = 0
  binary diffusion coefficient: 3.35e-10 m2/s
333.2 K, 102.6 kPa, x1 = 0
  binary diffusion coefficient: 3.97e-10 m2/s
343.2 K, 99.7 kPa, x1 = 0
  binary diffusion coefficient: 5.1e-10 m2/s

## CC(F)(F)F [1,1,1-trifluoroethane] + CCCCCCn1cc[n+](C)c1.F[B-](F)(F)F
303.2 K, 149.1 kPa, x1 = 0
  binary diffusion coefficient: 7.7e-11 m2/s
313.2 K, 159.2 kPa, x1 = 0
  binary diffusion coefficient: 1.15e-10 m2/s
323.2 K, 173.5 kPa, x1 = 0
  binary diffusion coefficient: 1.89e-10 m2/s
333.2 K, 187.6 kPa, x1 = 0
  binary diffusion coefficient: 2.62e-10 m2/s
343.2 K, 189 kPa, x1 = 0
  binary diffusion coefficient: 3.39e-10 m2/s

## CC(F)F [1,1-difluoroethane] + CCCCCC[n+]1ccn(C)c1.O=S(=O)([N-]S(=O)(=O)C(F)(F)F)C(F)(F)F
303.2 K, 87.7 kPa, x1 = 0
  binary diffusion coefficient: 9.9e-11 m2/s
313.2 K, 89.1 kPa, x1 = 0
  binary diffusion coefficient: 1.41e-10 m2/s
323.2 K, 92.5 kPa, x1 = 0
  binary diffusion coefficient: 2.02e-10 m2/s
333.2 K, 96.4 kPa, x1 = 0
  binary diffusion coefficient: 2.61e-10 m2/s
343.2 K, 93.8 kPa, x1 = 0
  binary diffusion coefficient: 3.16e-10 m2/s

## CC(F)F [1,1-difluoroethane] + CCCCCCn1cc[n+](C)c1.F[B-](F)(F)F
303.2 K, 95.1 kPa, x1 = 0
  binary diffusion coefficient: 7.4e-11 m2/s
313.2 K, 101.6 kPa, x1 = 0
  binary diffusion coefficient: 1.07e-10 m2/s
323.2 K, 102 kPa, x1 = 0
  binary diffusion coefficient: 1.59e-10 m2/s
333.2 K, 97.8 kPa, x1 = 0
  binary diffusion coefficient: 2.07e-10 m2/s
343.2 K, 98.5 kPa, x1 = 0
  binary diffusion coefficient: 2.56e-10 m2/s

## CCCCCCn1cc[n+](C)c1.F[B-](F)(F)F [1-hexyl-3-methylimidazolium tetrafluoroborate] + FCF
303.2 K, 95.7 kPa, x2 = 0
  binary diffusion coefficient: 1.29e-10 m2/s
313.2 K, 102 kPa, x2 = 0
  binary diffusion coefficient: 1.8e-10 m2/s
323.2 K, 99.1 kPa, x2 = 0
  binary diffusion coefficient: 2.55e-10 m2/s
333.2 K, 103.5 kPa, x2 = 0
  binary diffusion coefficient: 3.57e-10 m2/s
343.2 K, 99.9 kPa, x2 = 0
  binary diffusion coefficient: 4.76e-10 m2/s

## CCCCCCn1cc[n+](C)c1.O=S(=O)([O-])C(F)(F)F [1-hexyl-3-methylimidazolium trifluoromethanesulfonate] + C=C(F)C(F)(F)F
303.2 K, 104.3 kPa, x2 = 0
  binary diffusion coefficient: 1.46e-10 m2/s
313.2 K, 101.6 kPa, x2 = 0
  binary diffusion coefficient: 2e-10 m2/s
323.2 K, 106.7 kPa, x2 = 0
  binary diffusion coefficient: 2.66e-10 m2/s
333.2 K, 100.8 kPa, x2 = 0
  binary diffusion coefficient: 3.76e-10 m2/s
343.2 K, 109 kPa, x2 = 0
  binary diffusion coefficient: 4.97e-10 m2/s

## CCCCCCn1cc[n+](C)c1.O=S(=O)([O-])C(F)(F)F [1-hexyl-3-methylimidazolium trifluoromethanesulfonate] + CC(F)(F)F
303.2 K, 97.3 kPa, x2 = 0
  binary diffusion coefficient: 1.96e-10 m2/s
313.2 K, 110.5 kPa, x2 = 0
  binary diffusion coefficient: 2.61e-10 m2/s
323.2 K, 105.4 kPa, x2 = 0
  binary diffusion coefficient: 3.48e-10 m2/s
333.2 K, 108.8 kPa, x2 = 0
  binary diffusion coefficient: 4.58e-10 m2/s
343.2 K, 106.3 kPa, x2 = 0
  binary diffusion coefficient: 6.13e-10 m2/s

## CCCCCCn1cc[n+](C)c1.O=S(=O)([O-])C(F)(F)F [1-hexyl-3-methylimidazolium trifluoromethanesulfonate] + CC(F)F
303.2 K, 86.8 kPa, x2 = 0
  binary diffusion coefficient: 1.48e-10 m2/s
313.2 K, 95.7 kPa, x2 = 0
  binary diffusion coefficient: 2.13e-10 m2/s
323.2 K, 98 kPa, x2 = 0
  binary diffusion coefficient: 2.82e-10 m2/s
333.2 K, 101.9 kPa, x2 = 0
  binary diffusion coefficient: 3.79e-10 m2/s
343.2 K, 99.1 kPa, x2 = 0
  binary diffusion coefficient: 4.73e-10 m2/s

## CCCCCCn1cc[n+](C)c1.O=S(=O)([O-])C(F)(F)F [1-hexyl-3-methylimidazolium trifluoromethanesulfonate] + CCF
303.2 K, 94.5 kPa, x2 = 0
  binary diffusion coefficient: 2.08e-10 m2/s
313.2 K, 103.8 kPa, x2 = 0
  binary diffusion coefficient: 2.75e-10 m2/s
323.2 K, 97 kPa, x2 = 0
  binary diffusion coefficient: 3.68e-10 m2/s
333.2 K, 94.4 kPa, x2 = 0
  binary diffusion coefficient: 4.76e-10 m2/s
343.2 K, 98.1 kPa, x2 = 0
  binary diffusion coefficient: 5.91e-10 m2/s

## CCCCCCn1cc[n+](C)c1.O=S(=O)([O-])C(F)(F)F [1-hexyl-3-methylimidazolium trifluoromethanesulfonate] + FC(F)C(F)(F)F
303.2 K, 97.2 kPa, x2 = 0
  binary diffusion coefficient: 2.38e-10 m2/s
313.2 K, 98.5 kPa, x2 = 0
  binary diffusion coefficient: 3.05e-10 m2/s
323.2 K, 99.1 kPa, x2 = 0
  binary diffusion coefficient: 4.17e-10 m2/s
333.2 K, 100.9 kPa, x2 = 0
  binary diffusion coefficient: 5.25e-10 m2/s
343.2 K, 103.8 kPa, x2 = 0
  binary diffusion coefficient: 6.19e-10 m2/s

## CCCCCCn1cc[n+](C)c1.O=S(=O)([O-])C(F)(F)F [1-hexyl-3-methylimidazolium trifluoromethanesulfonate] + FCF
303.2 K, 98.2 kPa, x2 = 0
  binary diffusion coefficient: 3.01e-10 m2/s
313.2 K, 102 kPa, x2 = 0
  binary diffusion coefficient: 4.27e-10 m2/s
323.2 K, 99.3 kPa, x2 = 0
  binary diffusion coefficient: 5.35e-10 m2/s
333.2 K, 100.2 kPa, x2 = 0
  binary diffusion coefficient: 6.82e-10 m2/s
343.2 K, 100.4 kPa, x2 = 0
  binary diffusion coefficient: 8.35e-10 m2/s

## C=C(F)C(F)(F)F [2,3,3,3-tetrafluoro-1-propene] + CCCCCC[n+]1ccn(C)c1.O=S(=O)([N-]S(=O)(=O)C(F)(F)F)C(F)(F)F
303.2 K, 96.7 kPa, x1 = 0
  binary diffusion coefficient: 1.39e-10 m2/s
313.2 K, 95.6 kPa, x1 = 0
  binary diffusion coefficient: 1.99e-10 m2/s
323.2 K, 97.7 kPa, x1 = 0
  binary diffusion coefficient: 2.75e-10 m2/s
333.2 K, 98.3 kPa, x1 = 0
  binary diffusion coefficient: 4.01e-10 m2/s
343.2 K, 102.9 kPa, x1 = 0
  binary diffusion coefficient: 5.96e-10 m2/s

## C=C(F)C(F)(F)F [2,3,3,3-tetrafluoro-1-propene] + CCCCCCn1cc[n+](C)c1.F[B-](F)(F)F
303.2 K, 158.3 kPa, x1 = 0
  binary diffusion coefficient: 6.9e-11 m2/s
313.2 K, 168.4 kPa, x1 = 0
  binary diffusion coefficient: 1.02e-10 m2/s
323.2 K, 170 kPa, x1 = 0
  binary diffusion coefficient: 1.59e-10 m2/s
333.2 K, 185.3 kPa, x1 = 0
  binary diffusion coefficient: 2.47e-10 m2/s
343.2 K, 189 kPa, x1 = 0
  binary diffusion coefficient: 3.59e-10 m2/s

## FCF [difluoromethane] + CCCCCC[n+]1ccn(C)c1.O=S(=O)([N-]S(=O)(=O)C(F)(F)F)C(F)(F)F
303.2 K, 92.8 kPa, x1 = 0
  binary diffusion coefficient: 1.55e-10 m2/s
313.2 K, 93.9 kPa, x1 = 0
  binary diffusion coefficient: 2.15e-10 m2/s
323.2 K, 94.4 kPa, x1 = 0
  binary diffusion coefficient: 2.77e-10 m2/s
333.2 K, 94.3 kPa, x1 = 0
  binary diffusion coefficient: 3.68e-10 m2/s
343.2 K, 95.2 kPa, x1 = 0
  binary diffusion coefficient: 4.78e-10 m2/s

## CCF [fluoroethane] + CCCCCC[n+]1ccn(C)c1.O=S(=O)([N-]S(=O)(=O)C(F)(F)F)C(F)(F)F
303.2 K, 90.2 kPa, x1 = 0
  binary diffusion coefficient: 1.28e-10 m2/s
313.2 K, 91.1 kPa, x1 = 0
  binary diffusion coefficient: 2.08e-10 m2/s
323.2 K, 93.4 kPa, x1 = 0
  binary diffusion coefficient: 2.96e-10 m2/s
333.2 K, 93 kPa, x1 = 0
  binary diffusion coefficient: 3.46e-10 m2/s
343.2 K, 92.5 kPa, x1 = 0
  binary diffusion coefficient: 4.13e-10 m2/s

## CCF [fluoroethane] + CCCCCCn1cc[n+](C)c1.F[B-](F)(F)F
303.2 K, 101 kPa, x1 = 0
  binary diffusion coefficient: 1.23e-10 m2/s
313.2 K, 97.7 kPa, x1 = 0
  binary diffusion coefficient: 1.91e-10 m2/s
323.2 K, 104.5 kPa, x1 = 0
  binary diffusion coefficient: 2.54e-10 m2/s
333.2 K, 102.4 kPa, x1 = 0
  binary diffusion coefficient: 3.36e-10 m2/s
343.2 K, 101.6 kPa, x1 = 0
  binary diffusion coefficient: 4.2e-10 m2/s

## FC(F)C(F)(F)F [pentafluoroethane] + CCCCCC[n+]1ccn(C)c1.O=S(=O)([N-]S(=O)(=O)C(F)(F)F)C(F)(F)F
303.2 K, 93.2 kPa, x1 = 0
  binary diffusion coefficient: 1.02e-10 m2/s
313.2 K, 94.5 kPa, x1 = 0
  binary diffusion coefficient: 1.48e-10 m2/s
323.2 K, 95.6 kPa, x1 = 0
  binary diffusion coefficient: 2.24e-10 m2/s
333.2 K, 95.7 kPa, x1 = 0
  binary diffusion coefficient: 3.13e-10 m2/s
343.2 K, 100.2 kPa, x1 = 0
  binary diffusion coefficient: 4.21e-10 m2/s

From the NIST ThermoML archive (doi:10.1016/j.jct.2017.04.009)
